In patent publication US20070112000A1, “Chemical compounds” (AstraZeneca R&D Alderley, priority 2003, published 2007) one finds IC50 data, which are given here for 3 compounds.

T1 sequence (P28845 whole entry): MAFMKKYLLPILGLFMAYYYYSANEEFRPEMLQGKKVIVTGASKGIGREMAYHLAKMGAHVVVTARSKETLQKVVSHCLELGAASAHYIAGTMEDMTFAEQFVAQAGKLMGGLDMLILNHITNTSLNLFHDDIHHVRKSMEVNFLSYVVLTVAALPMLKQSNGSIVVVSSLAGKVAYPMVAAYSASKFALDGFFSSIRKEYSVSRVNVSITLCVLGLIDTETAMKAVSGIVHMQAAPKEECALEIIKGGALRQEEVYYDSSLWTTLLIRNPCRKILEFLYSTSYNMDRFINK

This assay addresses T1, human 11βHSD1 enzyme (Homo sapiens, UniProt P28845).
T1 construct: stably transfected with a construct containing fill-length human 11βHSD1 enzyme (in pCMVHyg); expressed in transfected cells; host or cells: HeLa cells (human cervical carcinoma) stably carrying the GRE4-β-galactosidase reporter and 11βHSD1 in pCMVHyg
As to the kind of experiment: HeLa GRE4-βGal/11βHSD1 cell reporter assay (cortisone to cortisol conversion, β-galactosidase readout). As to conditions: HeLa GRE4-βGal/11βHSD1 cells, cortisone 1 μM, overnight incubation. In kind it is cell-based. From the text: HeLa cells (human cervical carcinoma derived cells) were stably transfected with a construct containing four copies of the glucocorticoid response element (GRE) linked to a beta-galactosidase reporter gene (3 kb lac Z gene derived from pSV-B-galactosidase). These cells were then further stably transfected with a construct containing fill-length human 11βHSD1 enzyme (in pCMVHyg) to create GRE4-βGal/11βHSD1 cells. The principal of the assay is as follows. Cortisone is freely taken up by the cells and is converted to cortisol by 11βHSD1 oxo-reductase activity and cortisol (but not cortisone) binds to and activates the glucocorticoid receptor. Activated glucocorticoid receptor then binds to the GRE and initiates transcription and translation of β-galactosidase. Enzyme activity can then be assayed with high sensitivity by colourimetric assay.
Cells were routinely cultured in DMEM (Invitrogen, Paisley, Renfrewshire, UK) containing 10% foetal calf serum (LabTech), 1% glutamine (Invitrogen), 1% penicillin & streptomycin (Invitrogen), 0.5 mg/ml G418 (Invitrogen) & 0.5 mg/ml hygromycin (Boehringer). Assay media was phenol red free-DMEM containing 1% glutamine, 1% penicillin & streptomycin.
Compounds (1 mM) to be tested were dissolved in dimethyl sulphoxide (DMSO) and serially diluted into assay media containing […]. […]
A cocktail (25 μl) consisting of 10× Z-buffer (600 mM Na2HPO4, 400 mM NaH2PO4.2H2O, 100 mM KCl, 10 mM MgSO4.7H2O, 500 mM, β-mercaptoethanol, pH 7.0), SDS (0.2%), chlorophenol red-β-D-galactopyranoside (5 mM, Roche Diagnostics) was added per well and plates incubated at 37° C. for 34 hours. β-Galactosidase activity was indicated by a yellow to red colour change (absorbance at 570 nm) measured using a Tecan Spectrafluor Ultra.
The calculation of median inhibitory concentration (IC50) values for the inhibitors was performed using Origin 6.0 (Microcal Software, Northampton Mass. USA). Dose response curves for each inhibitor were plotted as OD units at each inhibitor concentration with relation to a maximum signal (cortisone, no compound) and IC50 values calculated. […]
As a reminder, the IC50 is the concentration at which inhibition is half-maximal. High values mean lower potency, low ones higher potency. As to `CC(C)S(=O)(=O)N1CCCC(C(=O)c2ccc(F)cc2)C1` (stereo not drawn) [Example 13], half-maximal inhibition (IC50) required 10 nM.
Compound `O=C(c1ccc(F)cc1)C1CCCN(C(=O)Cc2ccc(F)cc2)C1` (stereo not drawn) [Example 17] registered an IC50 of 83 nM.
Then `O=C(c1ccc(F)cc1)C1CCCN(C(=O)c2ccc(Cl)s2)C1` (stereo not drawn) [Example 18], with 206 nM.
